Reference: patent US20250134867A1, “METHOD FOR MODULATING LIPID METABOLISM, AMELIORATING NON-ALCOHOLIC FATTY LIVER DISEASE AND METABOLIC SYNDROME BY USING 6-METHOXYBENZOXAZOLINONE” (Taichung District Agricultural Research and Extension …, priority 2023, published 2025)

What was measured:
Format in all cases: in vivo
[1] = tested on: HFD-induced obese C57BL/6J mice; assay: Body weight gain, food intake and food efficiency ratio in HFD-induced obese mice; details: vs HFD group; for food efficiency ratio (FER): 12 weeks; for body weight gain: HFD mice, oral gavage 12 weeks, CX 10 and 30 mg/kg/day, EGCG 30 mg/kg/day
Description: (§1) To determine the effect of CX (Sigma, Inc., USA) on obesity and non-alcoholic fatty liver disease (NAFLD) in vivo, we established an experimental approach using HFD-induced obese C57BL/6J mice. CX was suspended in 0.5% methylcellulose solution for oral administration. The animals used in the examples are described below. 5-week-old male C57BL/6J mice were purchased from The National Laboratory Animal Center, Taipei, Taiwan and were maintained in a temperature-controlled room on a 12-h light-dark cycle. They were housed with four per cage and had free access to food and drinking water. Mice fed with a standard diet and adapted to the environment for 1 week were subsequently divided randomly into five groups. The ND group (n=8) continued on the same diet, whereas the other four groups (n=8 per group) were switched to the HFD (494 kcal/100 g, 45% energy as fat; TestDiet Inc., USA). Among the four HFD groups, three groups started to receive CX at 10 mg/kg/day (CX10 group), CX at 30 mg/kg/day (CX30 group), and epigallocatechin gallate (EGCG) (Sigma, Inc., USA) at 30 mg/kg/day (EGCG30 group) by oral gavage. EGCG was suspended in 0.5% methylcellulose solution for oral administration. Food consumption and weight gain were measured daily and weekly, respectively. After 12 weeks, all mice were sacrificed. Serum samples, liver tissue, epididymis adipose tissue and feces were harvested for further analysis. The experimental protocol was approved by the Animal Research Committee of the National Yang Ming Chiao Tung University (IACUC no. 1091013), and all procedures followed The Guide for the Care and Use of Laboratory Animals (NIH publication, 85-23, revised 1996) and the guidelines of the Animal Welfare Act, Taiwan.

[2] = tested on: HFD-induced obese C57BL/6J mice; assay: Fasting blood glucose, IPGTT and insulin resistance in HFD-induced obese mice; details: for insulin resistance index HOMA-IR / fasting insulin concentration (insulin expression): 12 weeks; for insulin resistance index HOMA-IR: compared with the HFD group; for fasting insulin concentration (insulin expression): serum; for fasting blood glucose: since the second week, 16 h fasting; for AUC of IPGTT: week 12, glucose 1.0 g/kg i.p., vs HFD group
Description: as §1, with “The” for “To determine the effect of CX (Sigma, Inc., USA) on obesity and non-alcoholic fatty liver disease (NAFLD) in vivo, we established an experimental approach using HFD-induced obese C57BL/6J mice. CX was suspended in 0.5% methylcellulose solution for oral administration. The”, “Taiwan. The procedure regarding blood glucose and intraperitoneal glucose tolerance test (IPGTT) is as follows. After a 16 h overnight fasting period, whole-blood glucose was measured with a glucose analyzer ([…], Taiwan). An enzymatic assay was used to measure the serum insulin concentration (Cisbio, USA). Intraperitoneal glucose tolerance tests (IPGTTs) were performed in all mice 12 weeks after the start of the study. Mice fasted for 16 h were injected intraperitoneally with glucose 1.0 g/kg body weight, blood glucose levels were measured in tail vain blood at 0, 30, 60, 90, 120 and 150 min.” for “Taiwan.”

[3] = tested on: HFD-induced obese C57BL/6J mice; assay: Renal function markers in HFD-induced obese mice; details: for serum CRE level, difference to ND group: 30 mg/kg/day oral, CX30, ND and EGCG groups compared; for serum CRE level, difference to ND group / serum uric acid (UA) level, difference to ND group: 12 weeks; for serum uric acid (UA) level, difference to ND group: CX 10-30 mg/kg/day, EGCG 30 mg/kg/day oral, compared with ND group
Description: as §1, with “The” for “To determine the effect of CX (Sigma, Inc., USA) on obesity and non-alcoholic fatty liver disease (NAFLD) in vivo, we established an experimental approach using HFD-induced obese C57BL/6J mice. CX was suspended in 0.5% methylcellulose solution for oral administration. The”, “Taiwan. The procedure regarding biochemical characterization is as follows. The serum triglyceride (TG), total cholesterol (TC), high-density lipoprotein-cholesterol (HDL-C), glutamic oxaloacetic transaminase (GOT), glutamic pyruvic transaminase (GPT), albumin (ALB), uric acid (UA), and creatinine (CRE) levels were measured using enzymatic assay kits with a FUJI DRI-CHEM analyzer (Fujifilm, Tokyo, Japan). The LDL-C level was calculated as [(TC)-(HDL-C)-(TG/5)].” for “Taiwan.”

[4] = CX treatment vs HFD group, 12 weeks oral

Compound | food efficiency ratio (FER) ([1]; 10 mg/kg/day oral gavage) | food efficiency ratio (FER) ([1]; 30 mg/kg/day oral gavage) | body weight gain [1] | insulin resistance index HOMA-IR ([2]; 10 mg/kg/day oral) | fasting insulin concentration (insulin expression) ([2]; 10 mg/kg/day oral) | fasting blood glucose ([2]; 10 mg/kg/day oral) | AUC of IPGTT ([2]; 10 mg/kg/day oral) | insulin resistance index HOMA-IR ([2]; 30 mg/kg/day oral) | fasting insulin concentration (insulin expression) ([2]; 30 mg/kg/day oral) | fasting blood glucose ([2]; 30 mg/kg/day oral) | AUC of IPGTT ([2]; 30 mg/kg/day oral) | serum CRE level, difference to ND group [3] | serum uric acid (UA) level, difference to ND group [3] | serum creatinine (CRE) level [3, 4] | serum uric acid (UA) level [3, 4]
COc1ccc2[nH]c(=O)oc2c1 [CX, 6-methoxybenzoxazolinone] | greatly reduced | greatly reduced | significantly prevented body weight gain | significantly lower | significantly lower than that of the HFD group | stable and significantly lower than the HFD group | significantly decreased | significantly lower | significantly lower than that of the HFD group | stable and significantly lower than the HFD group | significantly decreased | no significant difference | no significant difference | decreased | decreased
O=C(O[C@@H]1Cc2c(O)cc(O)cc2O[C@@H]1c1cc(O)c(O)c(O)c1)c1cc(O)c(O)c(O)c1 [EGCG, epigallocatechin gallate, reference compound] | – | – | significantly prevented body weight gain | – | – | – | – | – | – | stable and significantly lower than the HFD group | – | no significant difference | no significant difference | – | –
